According to publication PMC12314576, “The Actin‐Binding Prolyl‐Isomerase Par17 Sustains Its Substrate Selectivity by Interdomain Allostery” (Proteins, 2025):
Starred links: 1 amine or outer side, 2 acyl side, 3 side chain; linkers in the order of their positions; H or OH if unused. Residues, ends and D or L forms follow the SMILES beside them. *: point of attachment. pNA = O=[N+]([O-])c1ccc(N*)cc1; Suc = O=C(CCC(=O)[*:2])[*:1]

Legend:
Par17 [1] = molecular target: T1, Par17 (Homo sapiens, UniProt Q9Y237); assay: Protease-coupled isomerase assay (PPIase assay) with Par17; format: biochemical; conditions: for k = kobserved - kthermic, Par17: α-chymotrypsin 35 μM, substrate 75 μM, absorbance 390 nm, mean ± SD
T1 construct: full‐length Par17 and the N‐terminus of Par17; GST-His6 (PreScission site) (N, cleaved yes); Gly-Pro remnant of the PreScission site (Gly stands at position 1 in place of Met1); made in house; host or cells: E. coli BL21 (DE3) T1r
T1 sequence (Q9Y237 1-156 isoform Q9Y237-2): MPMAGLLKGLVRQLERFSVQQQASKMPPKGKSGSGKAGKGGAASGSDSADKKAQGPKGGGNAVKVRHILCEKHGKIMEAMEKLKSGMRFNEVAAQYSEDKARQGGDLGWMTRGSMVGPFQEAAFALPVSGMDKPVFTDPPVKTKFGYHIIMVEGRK
Description: (§1) To determine the catalytic efficiency and substrate specificity of Par14 and Par17, we performed a protease‐coupled assay. In this assay, the trans form of a para‐nitroaniline (pNA) tagged model substrate is cleaved by chymotrypsin, and the resulting change in absorption at 390 nm due to free pNA is measured. When the model substrate is added to the protease‐containing buffer, all trans‐Xaa‐Pro isomers are immediately cleaved by chymotrypsin. Therefore, the extent of the first signal burst observed in the absorption spectrum correlates with the amount of trans isomers of the model substrate formed during the experimental dead time. The remaining cis‐Xaa substrates now start to isomerize by thermal (in the absence of PPIase) or catalytic reaction (in the presence of PPIase). The newly formed trans‐Xaa substrates are immediately cleaved, and isomerization can thus be monitored over time (Figure 2). Eighteen different substrate peptides with varying amino acids at the Xaa position (Suc‐Ala‐Xaa‐Pro‐Phe‐pNa) were measured to determine the isomerase activity and substrate selectivity of Par14 (Par17Δ1–25), Par17, and the catalytic domain (Par17Δ1–60) (Table S1). The catalytic efficiency is obtained from the observed isomerization curves by calculating the difference between the rate constant in the presence of enzyme and the rate constant obtained from thermal isomerization.
(§2) We determined the isomerase activity using the PPIase assay described by. The lyophilized peptides were dissolved in an adequate volume of 0.5 mM‐LiCl/TFE buffer to obtain a 15 mM stock solution. To achieve a stable cis/trans ratio the mixture was incubated overnight at 4°C. The next day a stock solution of 350 μM α‐chymotrypsin in PBS was incubated on ice for at least 20 min. For measurements without PPIase PBS buffer (pH 6.8) was mixed with α‐chymotrypsin to a final concentration of 35 μM in 1 mL. A baseline was recorded for 5 min (Cary 100Bio UV/Vis spectrophotometer, Varian/Agilent, Santa Clara, US, λ: 390 nm, bandwidth: 1.0 nm, average time between measurements: 0.5 s, temperature: 10°C). After 5 min the substrate peptide was added to a final concentration of 75 μM in 1 mL [59]. The solution was mixed by inverting the cuvette three times and the reaction was recorded for 15 min. Measurements in the presence of PPIase were performed in the same way, except that before the baseline measurement, the appropriate isomerase was added in a final concentration of 2 μM in 1 mL in addition to PBS and α‐chymotrypsin.
(§3) For the data analysis, a mean value of the baseline was subtracted (average of the first 200 data points). The measured values were normalized according to the respective maximum of the measurement. To determine the rate constant, the program graph pad was used, and non‐linear curve fitting was applied for each measurement (exponential, one‐phase association). (1) Y=Y0+Plateau−Y0∙1−e^−K∙x
(§4) where x is the time (min), Y is the absorbance, Y 0 is the absorbance when x = 0, Plateau is the Y value at infinite times, K is the rate constant (min^−1).
(§5) The K cat/K M value was calculated according to Equation (2): (2) kcat/KM=kobs−ktherm/PPIase where k cat/K M is the catalytic efficiency (M^−1 s^−1), k obs, rate constant of the observed reaction (s^−1), k therm is the rate constant of the thermic reaction (s^−1), and [PPIase] is the concentration of PPIase used in the assay (M).
(§6) The obtained data are fitted to Equation (2) using a pseudo first‐order assumption. This is the case, if k obs values behave linearly with rising PPIase concentrations.

Par14 (Par17Δ1-25) = molecular target: T2, Par14 (Par17Δ1-25) (Homo sapiens, UniProt Q9Y237); assay: Protease-coupled isomerase assay (PPIase assay) with Par14; format: biochemical; conditions: PBS pH 6.8, 10°C, PPIase 2 μM; for k = kobserved - kthermic, Par14 (Par17Δ1-25): α-chymotrypsin 35 μM, substrate 75 μM, absorbance 390 nm, mean ± SD
T2 construct: Comparison of spectra of full‐length parvulin proteins and PPIase domain; GST-His6 (PreScission site) (N, cleaved yes); made in house; host or cells: E. coli BL21 (DE3) T1r
T2 sequence (Q9Y237 whole entry, stated change not applied, the tested form may be a part): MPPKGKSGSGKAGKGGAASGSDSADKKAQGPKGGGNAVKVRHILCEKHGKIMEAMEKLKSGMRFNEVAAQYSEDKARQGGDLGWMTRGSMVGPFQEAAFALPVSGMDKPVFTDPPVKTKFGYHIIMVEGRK
Description: as §1, §2, §3, §4, §5, §6

[2] = molecular target: T3, PPIase domain (Par17Δ1-60) (Homo sapiens, UniProt Q9Y237); assay: Protease-coupled isomerase assay (PPIase assay) with the catalytic domain; format: biochemical; conditions: PBS pH 6.8, 10°C, PPIase 2 μM; for k = kobserved - kthermic, PPIase domain (Par17Δ1-60): α-chymotrypsin 35 μM, substrate 75 μM, absorbance 390 nm, mean ± SD
T3 construct: GST-His6 (PreScission site) (N, cleaved yes); made in house; host or cells: E. coli BL21 (DE3) T1r
T3 sequence (Q9Y237 36-131, stated change not applied): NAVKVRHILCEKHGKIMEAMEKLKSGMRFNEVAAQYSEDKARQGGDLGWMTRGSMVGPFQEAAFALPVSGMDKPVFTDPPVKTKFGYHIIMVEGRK
Description: as §1, §2, §3, §4, §5, §6

Par17 [3] = molecular target: T1, Par17; assay: NMR titration of substrate peptides to 15N-labeled full-length Par17; format: binding; conditions: 300 μM Par17, KPi pH 6.7, 20°C
Description: The amide signals were assigned and combined chemical shift changes between the signals of free and substrate‐bound isomers were calculated.
For NMR measurements, purified and concentrated proteins in salt‐free buffers were mixed with 10% D2O and 1 μL DSS standard. Spectra were measured on an ultra shield 700‐NMR (Bruker, Billerica, US) with a triple resonance cryoprobe (700 MHz). For recording and processing of data, the software Topspin 3.5 was used. Analysis of spectra was carried out using Cara analysis software 2.3.1 (Rochus L.J. Keller) and/or CcpNmr Analysis 2.3.1 (Department of Molecular and Cell Biology, University of Leicester, UK).
Titration of substrate peptides to ^ 15 N‐labeled full‐length Par17 and the N‐terminus of Par17: The following substrate peptides were diluted in salt‐free 50 mM KPi buffer pH 6.7 to a concentration of 15 mM (Suc: Succinyl, pNA: para‐Nitroanilin):
They were added stepwise to 200 μL of the labeled parvulins (300 μM in 50 mM KPi buffer pH 6.7). Spectra were recorded with the pulse program Best‐TROSY at 20°C. Combined chemical shifts were calculated as described. Microscopic dissociation constant K D was fitted with the following equation (assuming a 1:1 binding model): (4) ∆δ=∆δmax·P+x+KD−P+x+KD^2−4·x·P/2·P
where ∆δmax is the amplitude, P is the protein concentration, X is the concentration of the peptide.
Differences in chemical shift changes could be measured up to 0.001 ppm (error in peak picking). Changes were interpreted as significant if Δ > 0.004 ppm and when appearing consecutively in a linear sequence element.
The microscopic K D describes the binding affinity of the ligand to a single side of an amino acid.

[4] = Table ST1, (kobs−ktherm)/[PPIase]

Molecule	k = kobserved - kthermic, Par17 (Par17 [1]; PBS pH 6.8, 10°C, PPIase 2 μM) [min⁻¹]	k = kobserved - kthermic, Par14 (Par17Δ1-25) (Par14 (Par17Δ1-25)) [min⁻¹]	k = kobserved - kthermic, PPIase domain (Par17Δ1-60) [2] [min⁻¹]	Combined chemical shift perturbation of full length Par17, 115M (Par17 [3]; peptide 0,2 mM)	Combined chemical shift perturbation of full length Par17, 119F (Par17 [3]; peptide 0,2 mM)	Combined chemical shift perturbation of full length Par17, 115M (Par17 [3]; peptide 1 mM)	Combined chemical shift perturbation of full length Par17, 116V (Par17 [3]; peptide 1 mM)	Combined chemical shift perturbation of full length Par17, 119F (Par17 [3]; peptide 1 mM)	Combined chemical shift perturbation of full length Par17, 115M (Par17 [3]; peptide 2 mM)	Combined chemical shift perturbation of full length Par17, 116V (Par17 [3]; peptide 2 mM)	Combined chemical shift perturbation of full length Par17, 119F (Par17 [3]; peptide 2 mM)	Combined chemical shift perturbation of full length Par17, 115M (Par17 [3]; peptide 3 mM)	Combined chemical shift perturbation of full length Par17, 116V (Par17 [3]; peptide 3 mM)	Combined chemical shift perturbation of full length Par17, 119F (Par17 [3]; peptide 3 mM)	Combined chemical shift perturbation of full length Par17, 115M (Par17 [3]; peptide 4 mM)	Combined chemical shift perturbation of full length Par17, 119F (Par17 [3]; peptide 4 mM)	Combined chemical shift perturbation of full length Par17, 115M (Par17 [3]; peptide 5 mM)	Combined chemical shift perturbation of full length Par17, 119F (Par17 [3]; peptide 5 mM)	Combined chemical shift perturbation of full length Par17, 113G (Par17 [3]; peptide 3 mM)	further results
C[C@H](NC(=O)CCC(=O)O)C(=O)N[C@@H](CCCNC(=N)N)C(=O)N1CCC[C@H]1C(=O)N[C@@H](Cc1ccccc1)C(=O)Nc1ccc([N+](=O)[O-])cc1 [Arg, Suc‐Ala‐Arg‐Pro‐Phe‐pNa] (Suc-ARPF-pNA)	0.470 ± 0.037	0.582 ± 0.094	0.683 ± 0.064	0,0060079 ppm	0,00418543 ppm	0,0143348 ppm	0,13037308 ppm	0,01835824 ppm	0,02655282 ppm	0,18551846 ppm	0,03376697 ppm	0,03809928 ppm	0,23776807 ppm	0,04577626 ppm	0,0454705 ppm	0,05474353 ppm	0,0546769 ppm	0,06351885 ppm	–	k cat/K M of Par17, times higher than for Leu‐Pro, Gln‐Pro or His‐Pro peptides (Par17 [1]; ratio of k cat/K M values): approximately 10 times; Combined chemical shift perturbation of full length Par17, 115M (Par17 [3]; peptide 0,4 mM): 0,00801333 ppm; Combined chemical shift perturbation of full length Par17, 116V (Par17 [3]; peptide 0,4 mM): 0,06817833 ppm; Combined chemical shift perturbation of full length Par17, 119F (Par17 [3]; peptide 0,4 mM): 0,00841748 ppm
C[C@H](NC(=O)CCC(=O)O)C(=O)N[C@@H](CCC(=O)O)C(=O)N1CCC[C@H]1C(=O)N[C@@H](Cc1ccccc1)C(=O)Nc1ccc([N+](=O)[O-])cc1 [Glu, Suc–Ala–Glu–Pro–Phe–pNa] (Suc-AEPF-pNA)	<0.01 ± 0.029	0.267 ± 0.011	0.114 ± 0.074	0,01409 ppm	0,02147 ppm	0,06465 ppm	0,12599 ppm	0,0896 ppm	0,10754 ppm	0,21191 ppm	0,14351 ppm	0,13595 ppm	0,27245 ppm	0,18213 ppm	0,16135 ppm	0,22445 ppm	–	–	0,17998 ppm	Combined chemical shift perturbation of full length Par17, 113G (Par17 [3]; peptide 0,2 mM): 0,02117 ppm; Combined chemical shift perturbation of full length Par17, 116V (Par17 [3]; peptide 0,2 mM): 0,03056 ppm; Combined chemical shift perturbation of full length Par17, 113G (Par17 [3]; peptide 1 mM): 0,08535 ppm; Combined chemical shift perturbation of full length Par17, 113G (Par17 [3]; peptide 2 mM): 0,14414 ppm; Combined chemical shift perturbation of full length Par17, 113G (Par17 [3]; peptide 4 mM): 0,21636 ppm; Combined chemical shift perturbation of full length Par17, 116V (Par17 [3]; peptide 4 mM): 0,32999 ppm
C[C@H](NC(=O)CCC(=O)O)C(=O)NCC(=O)N1CCC[C@H]1C(=O)N[C@@H](Cc1ccccc1)C(=O)Nc1ccc([N+](=O)[O-])cc1 [Gly, Suc‐Ala‐Gly‐Pro‐Phe‐pNa] (Suc-AGPF-pNA)	<0.01 ± 0.029	0.390 ± 0.457	0.275 ± 0.214	–	–	–	–	–	–	–	–	0,06 ppm	0,302 ppm	0,084 ppm	–	–	0,081 ppm	0,113 ppm	0,116 ppm	Combined chemical shift perturbation of full length Par17, 113G (Par17 [3]; peptide 0,35 mM): 0,014 ppm; Combined chemical shift perturbation of full length Par17, 116V (Par17 [3]; peptide 0,35 mM): 0,038 ppm; Combined chemical shift perturbation of full length Par17, 119F (Par17 [3]; peptide 0,35 mM): 0,012 ppm; Combined chemical shift perturbation of full length Par17, 113G (Par17 [3]; peptide 5 mM): 0,157 ppm; Combined chemical shift perturbation of full length Par17, 116V (Par17 [3]; peptide 5 mM): 0,412 ppm; Combined chemical shift perturbation of full length Par17, 113G (Par17 [3]; peptide 1,5 mM): 0,066 ppm; Combined chemical shift perturbation of full length Par17, 115M (Par17 [3]; peptide 1,5 mM): 0,035 ppm; Combined chemical shift perturbation of full length Par17, 116V (Par17 [3]; peptide 1,5 mM): 0,173 ppm; Combined chemical shift perturbation of full length Par17, 119F (Par17 [3]; peptide 1,5 mM): 0,05 ppm
Suc-Ala-Ser-Pro-Phe-pNa [model substrate peptide, Xaa = Ser]	<0.01 ± 0.098	0.332 ± 0.054	0.327 ± 0.273	–	–	–	–	–	–	–	–	–	–	–	–	–	–	–	–	kcat/KM, Par17 (Par17 [1]; Table ST1, (kobs−ktherm)/[PPIase], PPIase 2 μM, PBS pH 6.8, 10°C): <0.1 M^-1·s^-1 · 10^3; kcat/KM, Par14 (Par17Δ1-25) (Par14 (Par17Δ1-25); [4]): 2.7 M^-1·s^-1 · 10^3; kcat/KM, PPIase domain (Par17Δ1-60) [2, 4]: 2.7 M^-1·s^-1 · 10^3
